The values below are quoted from earlier work in patent US20070042953A1, “Antiepileptogenic complex of albumin with docosahexaenoate” (priority 2005, published 2007).

For data set [1], the system named is rat brain cells or hippocampal slices.
The subject of data set [2] is patients with chronic epilepsy. The note with it: nutritional supplementation, first 6 weeks.

Turning to `CCC=CCC=CCC=CCC=CCC=CC/C=C\CCC(=O)[O-].[Na+]` [DHA, cis-4,7,10,13,16,19-Docosahexaenoic acid, sodium salt], in data set [1], the “epileptic activity in vitro” value is “attenuate epileptic activity”. Also, the seizure frequency entry in data set [2] is “reduce seizure frequency in the first 6 weeks, but the effect was not sustained”.
